Assay results taken from the NIST ThermoML archive (doi:10.1021/je049888n).

Columns and labels:
[1] = xn = mol fraction of the nth substance listed

C1CCNCC1 [piperidine]
Details | surface tension liquid-gas [mN/m]
293.15 K | 30.11
298.15 K | 29.56
303.15 K | 29.09
313.15 K | 27.9
323.15 K | 27

C1CCNCC1 [piperidine] + O
surface tension liquid-gas [mN/m], [1]
Details | 293.15 K | 298.15 K | 303.15 K | 313.15 K | 323.15 K
x1 = 0.0076 | 57.25 | 56.85 | 56.45 | 55.56 | 54.62
x1 = 0.013 | 43.84 | 43.58 | 43.32 | 41.58 | 41.41
x1 = 0.0228 | 38.56 | 38.27 | 37.98 | 37.43 | 37.18
x1 = 0.0458 | 37.78 | 37.2 | 36.62 | 35.76 | 34.37
x1 = 0.092 | 35.44 | 34.99 | 34.54 | 33.69 | 32.61
x1 = 0.1542 | 34.34 | 34.02 | 33.7 | 32.67 | 31.8
x1 = 0.2672 | 33.9 | 33.39 | 32.88 | 32.1 | 31.26
x1 = 0.378 | 33.27 | 32.75 | 32.23 | 31.42 | 30.4
x1 = 0.5657 | 31.38 | 31.15 | 30.92 | 30.01 | 29.2
x1 = 0.7524 | 31.02 | 30.42 | 29.82 | 29.01 | 28.1
x1 = 1 | 30.11 | 29.56 | 29.09 | 27.9 | 27

C1CCNC1 [pyrrolidine]
Details | surface tension liquid-gas [mN/m]
293.15 K | 30.27
298.15 K | 29.75
303.15 K | 29.02
313.15 K | 27.87
323.15 K | 26.75

C1CCNC1 [pyrrolidine] + O
surface tension liquid-gas [mN/m], [1]
Details | 293.15 K | 298.15 K | 303.15 K | 313.15 K | 323.15 K
x1 = 0.0156 | 55.61 | 55.32 | 54.98 | 54.1 | 53.26
x1 = 0.0564 | 46.07 | 45.61 | 45.21 | 44.76 | 43.89
x1 = 0.1082 | 41.7 | 41.19 | 40.92 | 40.19 | 39.17
x1 = 0.1792 | 39.7 | 39.74 | 39 | 38.01 | 37.3
x1 = 0.3039 | 37.53 | 37.09 | 36.69 | 35.68 | 34.74
x1 = 0.4212 | 35.97 | 35.45 | 35.11 | 34.44 | 33.15
x1 = 0.5219 | 34.87 | 34.4 | 33.99 | 32.97 | 32.07
x1 = 0.6093 | 33.89 | 33.54 | 33.07 | 31.95 | 31.05
x1 = 0.6858 | 32.99 | 32.59 | 32.39 | 31.11 | 30.25
x1 = 0.7844 | 32.1 | 31.45 | 31.3 | 30.4 | 29.2
x1 = 0.9161 | 31.07 | 30.42 | 30.13 | 29.02 | 27.83
x1 = 1 | 30.27 | 29.75 | 29.02 | 27.87 | 26.75

O [water] + C1CCNC1
[1], x2 = 0
Details | surface tension liquid-gas [mN/m]
293.15 K | 72.7
298.15 K | 72.05
303.15 K | 71.28
313.15 K | 69.32
323.15 K | 67.88

O [water] + C1CCNCC1
[1], x2 = 0
Details | surface tension liquid-gas [mN/m]
293.15 K | 72.7
298.15 K | 72.05
303.15 K | 71.28
313.15 K | 69.32
323.15 K | 67.88
